The values below come from paper PMC5321741, “Arylmethylamino steroids as antiparasitic agents” (Nature Communications, 2017).

What is called fraction remaining is the share of the starting amount still present when the sample was taken. In general, solubility refers to how much of the substance goes into solution per volume. Broadly, the solubility (kinetic) is the concentration staying in solution when a stock, usually in DMSO, is diluted into the medium. One may read the CC50 as the concentration at which the toxic effect on the cells reaches its halfway point. Read a low CC50 as harm at low concentration.

Series [1] can be described thus: plasma stability. To be noted: for remaining at 3 h: plasma, read-out: Plasma Stability % remaining after 3 h. It is filed as in vitro ADME. The method, then:
(§1) Pharmacokinetic data were obtained for compound 1o at the Sanford-Burnham Medical Research Institute according to established procedures. Compound solubility in an aqueous solution was measured using an automated kinetic solubility method. The concentration of the compound in a saturated pH-buffered aqueous solution was determined via UV absorbance (250–498 nm) and compared with the spectra of a precipitation-free reference solution. The plasma stability of the compound was determined at a single concentration using species-specific plasma. The percentage of parent compound remaining after 3 h was determined via LC-MS/MS. The percentage of compound 1o bound to plasma proteins was determined through rapid equilibrium dialysis and quantified via LC-MS/MS. Metabolic stability of the compound was determined at a single concentration using species-specific liver microsomes that contained cytochrome P450s, flavin-monooxygenases, carboxyl-esterases, epoxide hydrolases, and other drug-metabolizing enzymes. The quantification was carried out via LC-MS/MS. Membrane permeability of compound 1o was measured using an in vitro model for the passive transport from the gastrointestinal tract into the blood system. A double-sink parallel artificial membrane permeability assay PAMPA, in a 96-well format was employed.

Series [2] in a line: plasma protein binding (rapid equilibrium dialysis). The class given is in vitro ADME. To be noted: read-out: Plasma Protein Binding % bound (converted). As to the method: as §1
A general note: In equilibrium dialysis only unbound substance equilibrates across the membrane.

The nature of series [3]: aqueous kinetic solubility. The class given is physicochemical. The settings on record: kinetic from dmso stock. The method, then: as §1
Series [4] in a line: in vitro. It is filed as cell-based. To be noted: Human. The method, then: Furthermore, cytotoxicity tests were carried out on immortalized human hepatocytes, Fa2N-4 cells (XenoTech, cat.no. IFH15), at the Sanford-Burnham Medical Research Institute. Cells were incubated with a range of concentrations (0.01–50 μM) of compound 1o for 24 h. Cell viability was determined with cellular ATP levels by using the Luminescence ATP Detection Assay System (ATPlite 1 step).

The target of series [5] is T1, recombinant protein hGrx1-roGFP2 (Homo sapiens, UniProt P35754).
T1 construct: made in house
The series can be described thus: in vitro interaction with recombinant redox probe. The class given is biochemical. To be noted: 10 nM to 100 µM, 4 h and 24 h. As to the method:
(2) Chromogenic precipitating substrates following a poly-condensation (so called “polymerization”) pathway, which is tuneable by utilizing metal catalytic effects via introduction of metal chelating groups.32-33 […]
Heterologous overexpression of hGrx1-roGFP2 and in vitro measurements with the recombinant protein were carried out as described45 with minor modifications. […] The emission of hGrx1-roGFP2 (510 nm) after excitation at 405 nm and 475 nm was measured in a plate reader (Clariostar, BMG Labtech) with optimal read settings. The ratio of the fluorescence […]
signals at 405/475 nm were calculated and plotted against time and/or concentration of compound 1o or redox active compounds. […]
100 µM for 4 h and 24 h incubations. Transfection of the Pf3D7 strain with the redox sensor was carried out, and the parasites were cultured as described under constant drug pressure with 5 nM WR99210 (Jacobus Pharmaceuticals, New Jersey, USA).45,46 P. falciparum trophozoites were enriched via magnet separation.47 Parasitemia was counted by using Giemsa-stained blood smears. […] (6-8% parasitemia) were magnetically enriched (Miltenyi Biotec, Germany), counted by using the improved Neubauer hemocytometer (Brand GmbH, Germany), and returned to cell culture (at 0.5 x 10^6 trophozoites/µl) for at least 1 h to recover. […]

≈ marks a conversion by molar mass, not a printed value. Where two headings read alike, the source gives them in different places.

In the case of `COc1ccc2c(c1)CCC1C2CC[C@@]2(C)C1CC[C@H]2NCc1cc2ccccc2cc1O` (stereo partly drawn) [1o], the “Plasma Stability % remaining after 3 h” value is recorded as 62% in series [1] (Human) and 58% in series [1] (Mouse). Besides, the figures for the fraction remaining at 3 h in series [1] (human) and in series [1] (mouse) were 62.5% and 58.9%, respectively. Further, the fraction unbound at 1 µM is 0.0087 in series [2] (Human) and 0.0094 in series [2] (Mouse). Moreover, the values for the fraction unbound at 10 µM in series [2] (Human) and in series [2] (Mouse) were 0.0094 and 0.0107, respectively. Further, the solubility in series [3] (Pion's buffer, aqueous buffer, pH 5.0, read-out: Aqueous Solubility (Pion's Buffer)) was 0.26 µg/mL (≈ 0.589 µM); in series [3] (Pion's buffer, pH 6.2, aqueous buffer, read-out: Aqueous Solubility (Pion's Buffer)), 0.38 µg/mL (≈ 0.86 µM); in series [3] (Pion's buffer, pH 7.4, aqueous buffer, read-out: Aqueous Solubility (Pion's Buffer)) it was 0.3 µg/mL (≈ 0.679 µM); in series [3] (pH-buffered aqueous solution, aqueous buffer, across a range of pH, read-out: aqueous solubility), under 1 µg/mL. The kinetic solubility in series [3] (pH-buffered aqueous solution, aqueous buffer, across a range of pH) was under 2.3 µM. In series [4], this compound had a CC50 at 24 h of over 50 µM. Also, the “direct interaction with recombinant hGrx1-roGFP2” value in series [5] is “No direct interaction was detected”.
